Measured values as given in US9861694B2, “EGFR antagonist for the treatment of heart disease” (priority 2010, dated 2018).

Assays:
[1] = tested on: adult cardiac myofibroblasts; assay: Collagen I/III and TGF-β1 expression by real-time RT-PCR in treated cardiac myofibroblasts; assay type: cell-based, mice; settings: for decrease in TGF-β1 levels / decrease in collagen I expression / decrease in collagen III expression: 10 ng/ml EGF, 24 hours
Experimental: (§1) Cardiac myofibroblast cultures were prepared from ventricles of WT and TIMP-3^−/− mice as previously described. Briefly, hearts were aseptically isolated from adult mice. The ventricles were minced and digested with collagenase and disapase. Fibroblasts subcultured for 2 generations were seeded on culture plates and used for all in vitro experiments. After 2 passages virtually all fibroblasts differentiate into myofibroblasts. Purity of myofibroblasts was verified by FSP-1 and α-smooth muscle actin double staining. Cell proliferation was assessed by Ki67 and FSP-1 double staining.
(§2) To determine the effect of EGF and TGF-β1 on collagen expression and synthesis, adult cardiac myofibroblasts subcultured for 2 generations were placed in low serum (5% FBS) for 24 hours and subsequently treated with either recombinant mouse EGF (rEGF, R&D […], CA) in DMEM containing 5% FBS and cultured for another 24 hours or with TGF-β1 (Millipore, Mass.) and cultured for another 48 hours. Cells were then harvested and experiments were conducted.
Total RNA was extracted from adult cultured myofibroblasts as well as LV tissue of WT and TIMP-3^−/− sham and the infarct region of MI mice 5 days post-surgery using Trizol as previously described. cDNA was synthesized using M-MLV reverse transcriptase (Invitrogen, ON). Real-time PCR was conducted using SYBR Green PCR Master Mix as per manufacturer's instructions (Applied Biological Materials, BC). 28S rRNA (house keeping gene) was used as a loading control since previous studies have shown that it is a reliable loading control especially for use in experiments with hypoxia and MI [13].

[2] = tested on: adult cardiac myofibroblasts; assay: Collagen I synthesis by PINP ELISA in conditioned media of treated cardiac myofibroblasts; assay type: cell-based, mice; settings: for decrease in collagen I synthesis: 10 ng/ml EGF, 24 hours
Experimental: as §1, §2
Collagen I synthesis was assessed in the LV myocardium and in conditioned media collected for cultured myofibroblasts using a rat/mouse procollagen I N-terminal peptide (PINP) ELISA kit (IDS-Medicorp, Quebec) according to the manufacturer's instructions. The LV tissues of sham mice and the infarct regions of WT and TIMP-3^−/− mice 5 days post-MI were homogenized in PBS and centrifuged. The supernatant was then collected and protein concentrations were measured. For tissues, 25 μg of total protein was used, while for media, 10 μL of conditioned media was used in the assay. Measurements of absorbances were made using SpectraMax M5 microplate reader at a wavelength of 450 nm. Values are expressed as either ng collagen per mg myocardial tissue or ng/ml conditioned media.

[3] = 10 ng/ml TGF-β1 (high concentration), 48 hours, P<0.01

Substance	collagen I and III expression ([1]; 1 ng/ml TGF-β1 (low concentration), 48 hours, P<0.05)	collagen I expression [1, 3]	effect on collagen III compared to controls ([1]; 10 ng/ml TGF-β1 (high concentration), 48 hours, P=n.s.)	collagen I synthesis [2, 3]	effect on collagen I or III expression ([1]; 1 ng/ml EGF (low concentration))	decrease in TGF-β1 levels ([1]; TIMP-3−/− myofibroblasts) [%]	decrease in collagen I expression ([1]; TIMP-3−/− myofibroblasts) [%]	decrease in collagen III expression ([1]; TIMP-3−/− myofibroblasts) [%]	decrease in TGF-β1 levels ([1]; WT myofibroblasts) [%]	decrease in collagen I expression ([1]; WT myofibroblasts) [%]	decrease in collagen III expression ([1]; WT myofibroblasts) [%]	decrease in collagen I synthesis ([2]; TIMP-3−/− myofibroblasts) [%]	decrease in collagen I synthesis ([2]; WT myofibroblasts) [%]
TGF-β1: human recombinant transforming growth factor-beta 1 (Millipore) used to treat cardiac myofibroblasts	significant increase	further increase	no effect	further increase									
EGF: recombinant mouse epidermal growth factor (rEGF) used to treat cardiac myofibroblasts					little effect	43	47	51	22	38	41	39	28
